The values that follow are results of earlier work, collected in patent US7838691B2, “Palmerolides: methods of preparation and derivatives thereof” (Board of Regents, of the University of Texas System, priority 2007, dated 2010).

The target of one data set is bovine brain V-ATPase. As to conditions: in vitro.
The subject of data set [1] is several cancer cell lines including melanoma, colon cancer, and renal cancer.

For the compound `CC(C)=CC(=O)N/C=C/C(C)=C/[C@@H](C)[C@H]1C/C(C)=C/C=C/CC[C@H](OC(N)=O)[C@@H](O)/C=C/[C@@H](O)CCC/C=C/C(=O)O1` [Palmerolide A], the IC50 on bovine brain V-ATPase is about 2 nM. In addition, the cytotoxicity result in data set [1] is given as “selective cytotoxin”.
